Experimental data as given in patent publication US20210255193A1, “LYSINE REACTIVE PROBES AND USES THEREOF” (The Scripps Research Institute, priority 2017, published 2021).
One block for each compound: values may come before it.

Tests used:
Test in all cases: competitive isoTOP-ABPP
Assay type in all cases: binding
[1] = target: T1, DNMT1 DNA (cytosine-5)-methyltransferase 1 (Homo sapiens, UniProt P26358); conditions: for isoTOP-ABPP ratio (R) at liganded lysine P26358_K45: 50 uM, in vitro, sol, 231
T1 construct: isoTOP-ABPP experiments performed in cell lysates (in vitro); endogenous in cells; host or cells: soluble proteome of human cancer cell lines (MDA-MB-231; Ramos and Jurkat also prepared)
How it was run: (§1)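 Lysate + fragment (50 μM activated ester / 100 μM guanidinylating agent) or DMSO → 0.1 mM STP-alkyne, 1 h, RT → CuAAC to TEV tags (compound light, DMSO heavy) → LC-MS. R = heavy/light MS1 area; liganded lysine if R≥4.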

[2] = target: T2, IMPDH1 Inosine-5-monophosphate dehydrogenase 1 (Homo sapiens, UniProt P20839); conditions: for isoTOP-ABPP ratio (R) at liganded lysine P20839_K208: 50 uM, in vitro, sol, 231
T2 construct: isoTOP-ABPP experiments performed in cell lysates (in vitro); endogenous in cells; host or cells: soluble proteome of human cancer cell lines (MDA-MB-231; Ramos and Jurkat also prepared)
How it was run: as §1

TTR Transthyretin = target: T3, TTR Transthyretin (Homo sapiens, UniProt P02766); conditions: for isoTOP-ABPP ratio (R) at liganded lysine P02766_K35: 50 uM, in vitro, sol, 231
T3 construct: isoTOP-ABPP experiments performed in cell lysates (in vitro); endogenous in cells; host or cells: MDA-MB-231 soluble lysate
How it was run: as §1

RTN4 Reticulon-4 = target: T4, RTN4 Reticulon-4 (Homo sapiens, UniProt Q9NQC3); conditions: for isoTOP-ABPP ratio (R) at liganded lysine Q9NQC3_K1104: 50 uM, in vitro, sol, 231
T4 construct: endogenous in cells; host or cells: MDA-MB-231 lysate
T4 sequence (Q9NQC3 1-1192): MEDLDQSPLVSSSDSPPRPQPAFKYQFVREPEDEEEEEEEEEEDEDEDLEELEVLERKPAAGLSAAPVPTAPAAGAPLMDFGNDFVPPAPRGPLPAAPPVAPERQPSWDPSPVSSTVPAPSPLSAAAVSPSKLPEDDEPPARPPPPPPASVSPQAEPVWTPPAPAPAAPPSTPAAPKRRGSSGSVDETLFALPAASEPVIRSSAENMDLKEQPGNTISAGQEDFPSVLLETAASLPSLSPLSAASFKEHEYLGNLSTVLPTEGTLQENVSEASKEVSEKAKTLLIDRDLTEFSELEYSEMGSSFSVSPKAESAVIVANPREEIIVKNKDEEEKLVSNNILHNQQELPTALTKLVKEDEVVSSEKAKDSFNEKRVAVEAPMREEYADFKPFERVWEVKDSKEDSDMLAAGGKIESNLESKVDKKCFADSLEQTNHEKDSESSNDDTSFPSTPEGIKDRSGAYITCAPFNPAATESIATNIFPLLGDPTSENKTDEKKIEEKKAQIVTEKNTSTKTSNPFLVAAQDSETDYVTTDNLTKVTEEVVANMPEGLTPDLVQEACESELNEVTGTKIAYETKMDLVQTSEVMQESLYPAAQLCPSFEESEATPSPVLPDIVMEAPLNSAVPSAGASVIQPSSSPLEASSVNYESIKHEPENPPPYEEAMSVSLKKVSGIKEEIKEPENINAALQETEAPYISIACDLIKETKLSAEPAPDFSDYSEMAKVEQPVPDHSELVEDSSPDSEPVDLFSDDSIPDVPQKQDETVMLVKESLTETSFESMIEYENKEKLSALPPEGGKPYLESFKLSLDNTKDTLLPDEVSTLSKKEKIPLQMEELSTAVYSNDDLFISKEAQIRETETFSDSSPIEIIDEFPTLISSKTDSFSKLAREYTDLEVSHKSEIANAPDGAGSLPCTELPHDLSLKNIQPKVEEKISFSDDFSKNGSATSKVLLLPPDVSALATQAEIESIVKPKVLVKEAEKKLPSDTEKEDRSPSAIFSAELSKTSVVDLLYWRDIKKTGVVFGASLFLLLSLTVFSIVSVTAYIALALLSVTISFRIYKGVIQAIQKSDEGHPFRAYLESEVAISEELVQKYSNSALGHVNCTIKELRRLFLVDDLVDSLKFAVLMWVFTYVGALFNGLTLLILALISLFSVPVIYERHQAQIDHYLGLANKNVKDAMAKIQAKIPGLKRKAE
How it was run: as §1

T2 sequence (P20839 whole entry): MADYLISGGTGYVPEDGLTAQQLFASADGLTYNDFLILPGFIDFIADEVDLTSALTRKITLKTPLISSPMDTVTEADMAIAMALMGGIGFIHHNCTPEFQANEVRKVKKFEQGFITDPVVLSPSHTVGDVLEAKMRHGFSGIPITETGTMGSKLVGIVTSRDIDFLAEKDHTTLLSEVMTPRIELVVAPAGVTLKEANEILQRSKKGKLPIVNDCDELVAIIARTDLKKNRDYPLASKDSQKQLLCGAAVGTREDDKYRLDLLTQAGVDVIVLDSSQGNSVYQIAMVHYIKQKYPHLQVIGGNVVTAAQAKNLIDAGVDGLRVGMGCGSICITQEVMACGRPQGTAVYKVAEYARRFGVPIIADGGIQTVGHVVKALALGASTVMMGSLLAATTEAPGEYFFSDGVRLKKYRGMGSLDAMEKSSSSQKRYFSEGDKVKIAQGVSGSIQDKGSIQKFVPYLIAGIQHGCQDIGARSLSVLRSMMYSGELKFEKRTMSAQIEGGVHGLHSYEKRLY
T1 sequence (P26358 whole entry): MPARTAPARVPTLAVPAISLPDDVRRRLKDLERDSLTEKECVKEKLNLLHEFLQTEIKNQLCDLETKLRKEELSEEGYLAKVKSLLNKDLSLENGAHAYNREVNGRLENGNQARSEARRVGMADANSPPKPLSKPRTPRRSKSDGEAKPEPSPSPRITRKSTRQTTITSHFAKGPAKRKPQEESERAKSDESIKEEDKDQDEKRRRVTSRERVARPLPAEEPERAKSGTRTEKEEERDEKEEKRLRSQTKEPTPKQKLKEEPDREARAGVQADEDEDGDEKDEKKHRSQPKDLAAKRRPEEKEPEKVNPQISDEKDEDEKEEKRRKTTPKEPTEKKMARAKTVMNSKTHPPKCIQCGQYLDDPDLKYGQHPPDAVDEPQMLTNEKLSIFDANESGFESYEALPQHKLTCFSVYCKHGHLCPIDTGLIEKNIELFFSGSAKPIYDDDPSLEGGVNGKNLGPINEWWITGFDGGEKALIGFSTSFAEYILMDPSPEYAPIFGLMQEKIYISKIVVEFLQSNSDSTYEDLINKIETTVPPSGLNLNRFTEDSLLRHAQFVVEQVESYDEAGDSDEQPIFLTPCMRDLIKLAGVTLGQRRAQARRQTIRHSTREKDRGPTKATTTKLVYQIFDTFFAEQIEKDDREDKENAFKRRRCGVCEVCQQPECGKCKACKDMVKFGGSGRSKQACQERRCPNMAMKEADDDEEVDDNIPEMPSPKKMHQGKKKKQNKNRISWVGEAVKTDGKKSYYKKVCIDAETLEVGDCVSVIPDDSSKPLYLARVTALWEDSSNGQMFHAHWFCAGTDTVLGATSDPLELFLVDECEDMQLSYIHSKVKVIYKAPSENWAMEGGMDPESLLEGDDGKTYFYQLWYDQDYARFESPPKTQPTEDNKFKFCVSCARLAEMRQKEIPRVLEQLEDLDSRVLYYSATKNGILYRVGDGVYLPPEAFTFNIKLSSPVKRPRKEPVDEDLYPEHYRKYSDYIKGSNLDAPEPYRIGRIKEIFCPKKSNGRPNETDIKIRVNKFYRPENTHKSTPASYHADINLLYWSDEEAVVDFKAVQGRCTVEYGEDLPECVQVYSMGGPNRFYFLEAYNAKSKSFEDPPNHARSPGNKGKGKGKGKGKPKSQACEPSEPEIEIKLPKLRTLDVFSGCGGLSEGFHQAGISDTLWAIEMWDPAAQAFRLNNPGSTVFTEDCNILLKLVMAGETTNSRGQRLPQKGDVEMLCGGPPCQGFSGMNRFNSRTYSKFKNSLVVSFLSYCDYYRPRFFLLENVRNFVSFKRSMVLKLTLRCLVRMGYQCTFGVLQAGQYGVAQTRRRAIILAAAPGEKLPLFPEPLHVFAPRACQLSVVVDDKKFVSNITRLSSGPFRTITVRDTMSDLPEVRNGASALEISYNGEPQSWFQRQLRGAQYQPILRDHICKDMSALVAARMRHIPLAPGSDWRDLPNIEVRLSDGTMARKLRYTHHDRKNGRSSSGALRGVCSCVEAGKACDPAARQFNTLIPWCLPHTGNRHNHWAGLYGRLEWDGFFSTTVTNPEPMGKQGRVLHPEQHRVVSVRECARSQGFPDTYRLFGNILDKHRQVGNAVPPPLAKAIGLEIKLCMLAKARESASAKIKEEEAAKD

SMILES: O=C(CCc1coc2cc(F)ccc2c1=O)Oc1ccc([N+](=O)[O-])cc1[N+](=O)[O-] [fragment 36, 2,4-Dinitrophenyl 3-(7-fluoro-4-oxo-4H-chromen-3-yl)propanoate]
isoTOP-ABPP ratio (R) at liganded lysine P26358_K45 [1]: 0.8
isoTOP-ABPP ratio (R) at liganded lysine P20839_K208 [2]: 1.6
isoTOP-ABPP ratio (R) at liganded lysine P02766_K35 (TTR Transthyretin): 2.4

SMILES: O=C(CC12CC3CC(CC(C3)C1)C2)Oc1ccc([N+](=O)[O-])cc1[N+](=O)[O-] [fragment 38, 2,4-Dinitrophenyl 2-(adamantan-1-yl)acetate]
isoTOP-ABPP ratio (R) at liganded lysine P20839_K208 [2]: 1.2
isoTOP-ABPP ratio (R) at liganded lysine P02766_K35 (TTR Transthyretin): 1.2

SMILES: O=C(Oc1ccc([N+](=O)[O-])cc1[N+](=O)[O-])c1ccc(Oc2ccccc2)cc1 [fragment 39, 2,4-Dinitrophenyl 4-phenoxybenzoate]
isoTOP-ABPP ratio (R) at liganded lysine P26358_K45 [1]: 1.0
isoTOP-ABPP ratio (R) at liganded lysine P02766_K35 (TTR Transthyretin): 2.2

SMILES: O=C(Oc1ccc([N+](=O)[O-])cc1[N+](=O)[O-])c1ccccc1Nc1cccc(C(F)(F)F)c1 [fragment 40, 2,4-Dinitrophenyl 2-((3-(trifluoromethyl)phenyl)amino)benzoate]
isoTOP-ABPP ratio (R) at liganded lysine Q9NQC3_K1104 (RTN4 Reticulon-4): 2.1

SMILES: CC(C)(C)OC(=O)NCCCC(=O)Oc1ccc([N+](=O)[O-])cc1[N+](=O)[O-] [fragment 41, 2,4-Dinitrophenyl 4-((tert-butoxycarbonyl)amino)butanoate]
isoTOP-ABPP ratio (R) at liganded lysine P20839_K208 [2]: 1.2
isoTOP-ABPP ratio (R) at liganded lysine Q9NQC3_K1104 (RTN4 Reticulon-4): 4.3
isoTOP-ABPP ratio (R) at liganded lysine P02766_K35 (TTR Transthyretin): 3.4

SMILES: O=C(Oc1ccc([N+](=O)[O-])cc1[N+](=O)[O-])C(c1ccccc1)(c1ccccc1)c1ccccc1 [fragment 42, 2,4-Dinitrophenyl 2,2,2-triphenylacetate]
isoTOP-ABPP ratio (R) at liganded lysine P20839_K208 [2]: 1.2
isoTOP-ABPP ratio (R) at liganded lysine Q9NQC3_K1104 (RTN4 Reticulon-4): 1.2
isoTOP-ABPP ratio (R) at liganded lysine P02766_K35 (TTR Transthyretin): 1.0

SMILES: CC(=O)Oc1ccc([N+](=O)[O-])cc1[N+](=O)[O-] [fragment 43, 2,4-Dinitrophenyl acetate]
isoTOP-ABPP ratio (R) at liganded lysine P20839_K208 [2]: 1.3
isoTOP-ABPP ratio (R) at liganded lysine Q9NQC3_K1104 (RTN4 Reticulon-4): 1.4

SMILES: N#Cc1ccc(C(=O)Oc2ccc([N+](=O)[O-])cc2[N+](=O)[O-])cc1 [fragment 44, 2,4-Dinitrophenyl 4-cyanobenzoate]
isoTOP-ABPP ratio, lysine P26358_K45 ([1]; 50 uM_231_sol_in vitro): 0.7
isoTOP-ABPP ratio, lysine Q9NQC3_K1104 (RTN4 Reticulon-4; 50 uM_231_sol_in vitro): 2.6
isoTOP-ABPP ratio, lysine P02766_K35 (TTR Transthyretin; 50 uM_231_sol_in vitro): 20.0

SMILES: O=C(ON1C(=O)CCC1=O)c1cc(C(F)(F)F)cc(C(F)(F)F)c1 [fragment 46, 3,5-Bis(trifluoromethyl)benzoic acid NHS ester]
isoTOP-ABPP ratio, lysine P26358_K45 ([1]; 50 uM_231_sol_in vitro): 2.4
isoTOP-ABPP ratio, lysine Q9NQC3_K1104 (RTN4 Reticulon-4; 50 uM_231_sol_in vitro): 2.5
isoTOP-ABPP ratio, lysine P02766_K35 (TTR Transthyretin; 50 uM_231_sol_in vitro): 2.3

isoTOP-ABPP ratio, lysine P20839_K208 ([2]; 50 uM_231_sol_in vitro): 1.2
isoTOP-ABPP ratio, lysine Q9NQC3_K1104 (RTN4 Reticulon-4; 50 uM_231_sol_in vitro): 3.8
isoTOP-ABPP ratio, lysine P02766_K35 (TTR Transthyretin; 50 uM_231_sol_in vitro): 1.6
SMILES: O=C(Oc1c(F)c(F)c(C(F)(F)F)c(F)c1F)c1cc(C(F)(F)F)cc(C(F)(F)F)c1 [fragment 47, 2,3,5,6-Tetrafluoro-4-(trifluoromethyl)phenyl 3,5-bis(trifluoromethyl)benzoate]

isoTOP-ABPP ratio, lysine P26358_K45 ([1]; 50 uM_231_sol_in vitro): 1.1
SMILES: O=C(Oc1c(F)c(F)cc(F)c1F)c1cc(C(F)(F)F)cc(C(F)(F)F)c1 [fragment 48, 2,3,5,6-Tetrafluorophenyl 3,5-bis(trifluoromethyl)benzoate]

isoTOP-ABPP ratio, lysine P26358_K45 ([1]; 100 uM_231_sol_in vitro): 1.3
isoTOP-ABPP ratio, lysine P20839_K208 ([2]; 100 uM_231_sol_in vitro): 4.4
SMILES: COC(=O)NC(=NC(=O)OCC1c2ccccc2-c2ccccc21)n1cccn1 [fragment 49, N-Methoxycarbonyl-N′-9-fluorenylmethoxycarbonyl-pyrazole-1-carboxamidine]

isoTOP-ABPP ratio, lysine P20839_K208 ([2]; 100 uM_231_sol_in vitro): 20.0
isoTOP-ABPP ratio, lysine Q9NQC3_K1104 (RTN4 Reticulon-4; 100 uM_231_sol_in vitro): 1.4
isoTOP-ABPP ratio, lysine P02766_K35 (TTR Transthyretin; 100 uM_231_sol_in vitro): 2.1
SMILES: CC(C)(C)OC(=O)N=C(NC(=O)OC(C)(C)C)n1cccn1 [fragment 50, reference compound]

isoTOP-ABPP ratio, lysine Q9NQC3_K1104 (RTN4 Reticulon-4; 50 uM_231_sol_in vitro): 0.7
SMILES: NC(=O)c1cc(C(F)(F)F)cc(C(F)(F)F)c1 [fragment 51, reference compound]
